Measurements as given in US7951406B2, “Therapeutic compounds isolated from Calomeria amaranthoides” (Caroline Van Haaften, priority 2004, dated 2011).

Key:
human skin fibroblasts = assay: Cell viability by photomicrography, comparison with Cisplatinum and Docetaxol, fibroblasts; settings: 10 μg and 100 μg, compared with 1 μg; 48 hours
[1] = system: ovarian cancer cell line JC; settings: 48 hours

SMILES | cell viability in fibroblasts (human skin fibroblasts) | cytotoxicity in JC cells, treatments compared ([1]; 10 μg dosage level) | resistance of JC cells [1]
N.N.[Cl][Pt][Cl] [Cisplatinum] | greater reduction in cell viability | – | –
CC(=O)O[C@@]12CO[C@@H]1C[C@H](O)[C@@]1(C)C(=O)[C@H](O)C3=C(C)[C@@H](OC(=O)[C@H](O)[C@@H](NC(=O)OC(C)(C)C)c4ccccc4)C[C@@](O)([C@@H](OC(=O)c4ccccc4)[C@H]21)C3(C)C [Docetaxol] | greater reduction in cell viability | less cytotoxic than either the Calomeria extract or Cisplatinum | more resistant
